# From patent US11046932B2, “Method of producing renal cells from differentiated cells” (priority 2016, dated 2021)
# Key:
# [1] = tested on: mouse embryonic fibroblasts (MEFs); test: Reprogramming efficiency: GFP-positive cells by flow cytometry in KSP-Cre mTOM/mGFP reporter MEFs; type: cell-based; settings: added to culture medium of 4TF treated MEFs for 7 days: Vitamin C 50 μg/ml, CHIR99021 3 μM, Forskolin 10 μM, Valproic Acid 1 mM, 5-Azacytidine 2 μM
# Method: Next, we expressed candidate transcription factors in isolated MEFs by lentiviral transduction and analyzed GFP reporter-expression by flow cytometry (FIG. 2a and FIG. 11a).
# Tissue was minced with a scalpel and digested with 0.25% Trypsin-EDTA for 30 min at 37° C. Trypsinization was stopped by addition of MEF Medium (MEFM: Dulbecco's modified Eagle's medium (DMEM), 10% fetal bovine serum (FBS), 2 mM L-glutamine, penicillin/streptomycin). After resuspension the cells were centrifuged and the pellet was resuspended in MEFM and plated on gelatine-coated 6-well plates for 3 days until they reached confluency. […] MEFs, TTFs and human fibroblasts were frozen in liquid nitrogen and used without further passaging for reprogramming experiments. For efficiency improvement experiments the following substances were added to the cell culture medium for 7 days: Vitamin C (Sigma, 50 μg/ml); CHIR99021 (Sigma, 3 μM); Forskolin (FocusBiomolecules, 10 μM); Valproic Acid (Sigma, 1 mM); 5-Azacytidine (Sigma, 2 μM).
# For the infection of MEFs, TTFs, HFoFs and HFeFs virus concentrate was diluted 1:100 (high viral titers) to 1:1000 (low viral titers) in MEFM containing 10 μg/ml Polybrene and cells were incubated for 12 h. Viral infection was repeated five to seven times. After cultivation in MEFM for 7 days, MEFs and TTFs were analyzed for GFP expression by flow cytometry.
# For flow cytometry analyses, cells were harvested, resuspended in FACS buffer (PBS supplemented with 3% FBS and 5 mM EDTA), filtered through a 50 μm cell strainer and analyzed using the 13-color LCR Fortessa FACS analyzer (Becton Dickinson).
# [2] = tested on: iRECs; test: Cytotoxicity assay (dead/apoptotic cells by DAPI flow cytometry) in iRECs versus MEFs; type: cell-based; settings: Cisplatin 6 μg/ml 24 h; Tacrolimus 40 μM 24 h; Gentamicin 1 mg/ml 48 h
# Method: (§1) Cells were harvested and analyzed as described above. Experiments were performed in triplicates and repeated three times.
# [3] = tested on: iRECs; test: Kim-1 expression analysis by flow cytometry after drug treatment; type: cell-based, mouse; settings: Gentamicin 1 mg/ml for 48 h
# Method: as §1
# [4] = target: organic cation transporter 2 (Oct2) (Mus musculus, UniProt O70577); settings: 6 μg/ml cisplatin and 1 mM cimetidine versus cisplatin alone
# Sequence of organic cation transporter 2 (Oct2) (O70577 whole entry): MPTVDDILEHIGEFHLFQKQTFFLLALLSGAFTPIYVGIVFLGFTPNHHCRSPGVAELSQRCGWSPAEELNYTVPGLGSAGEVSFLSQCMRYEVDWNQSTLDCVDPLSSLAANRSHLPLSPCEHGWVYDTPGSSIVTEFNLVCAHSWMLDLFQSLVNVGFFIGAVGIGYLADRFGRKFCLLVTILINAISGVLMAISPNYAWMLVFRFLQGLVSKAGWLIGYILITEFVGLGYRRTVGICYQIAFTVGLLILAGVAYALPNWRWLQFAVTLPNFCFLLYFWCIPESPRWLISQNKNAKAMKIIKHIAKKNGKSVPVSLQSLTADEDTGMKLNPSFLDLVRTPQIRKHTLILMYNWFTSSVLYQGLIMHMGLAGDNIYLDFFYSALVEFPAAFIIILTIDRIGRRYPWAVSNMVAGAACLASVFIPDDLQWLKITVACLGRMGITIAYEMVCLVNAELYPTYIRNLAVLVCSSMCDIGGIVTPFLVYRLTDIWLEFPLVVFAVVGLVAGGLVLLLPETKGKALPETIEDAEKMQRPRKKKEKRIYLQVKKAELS
# Method: Drug treated cells and untreated controls were stained with 1 μg/ml DAPI (Invitrogen, D1306) for 5 minutes and fluorescence was measured via flow cytometry using the 405 nm laser for excitation. Dead cells were identified by comparing emission of DAPI stained cell and unstained controls using a 450/50 nm band pass filter. For Kim-1 expression analysis MEFs and iRECs were treated with Gentamicin (1 mg/ml for 48 h), stained for Kim-1 (Miltenyi Biiotec, 130-106-024) and analyzed by flow cytometry. […] Cells were harvested and analyzed as described above. Experiments were performed in triplicates and repeated three times.
Compound,effect on the percentage of GFP-positive cells [1],further results
"Nc1ncn([C@@H]2O[C@H](CO)[C@@H](O)[C@H]2O)c(=O)n1 [5 azacytidine, 5-azacytidine]",did not have an effect,
Cc1c[nH]c(-c2cnc(NCCNc3ccc(C#N)cn3)nc2-c2ccc(Cl)cc2Cl)n1 [CHIR99021],did not have an effect,
CCCC(CCC)C(=O)O [valproic acid],did not have an effect,
Gentamicin,,rate of apoptosis in treated iRECs compared to MEFs [2]: significantly higher; Kidney injury molecule 1 (KIM1) in iRECs [3]: markedly increased
CN/C(=N/CCSCc1nc[nH]c1C)NC#N [Cimetidine],,cisplatin induced toxicity in iRECs [4]: decreased
O=C1O[C@H]([C@@H](O)CO)C(O)=C1O [Vitamin C],did not have an effect,
